Source: patent US20260262643A1, “HERBICIDAL BENZOXAZINES” (FMC CORPORATION, priority 2022, published 2026)

Key:
barnyardgrass [1] = assay: Test C preemergence; format: in vivo, Echinochloa crusgalli
Outline: (§1)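 Seeds sown in loam soil–sand blend received a directed preemergence soil spray of test chemical in non-phytotoxic solvent with surfactant; postemergence plants (2–10 cm, one- to two-leaf stage) were sprayed with the same formulation. Greenhouse-held 10 days, then visually rated for injury versus untreated controls, 0 (no effect) to 100 (complete control).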

blackgrass [2] = assay: Test C preemergence; format: in vivo, Alopecurus myosuroides
Outline: as §1

corn [3] = assay: Test C preemergence; format: in vivo, Zea mays
Outline: as §1

green foxtail [4] = assay: Test C preemergence; format: in vivo, Setaria viridis
Outline: as §1

kochia [5] = assay: Test C preemergence; format: in vivo, Bassia scoparia
Outline: as §1

oat, wild [6] = assay: Test C preemergence; format: in vivo, Avena fatua
Outline: as §1

pigweed, palmer [7] = assay: Test C preemergence; format: in vivo, Amaranthus palmeri
Outline: as §1

ragweed [8] = assay: Test C preemergence; format: in vivo, Ambrosia artemisiifolia
Outline: as §1

ryegrass, Italian [9] = assay: Test C preemergence; format: in vivo, Lolium multiflorum
Outline: as §1

soybean [10] = assay: Test C preemergence; format: in vivo, Glycine max
Outline: as §1

wheat [11] = assay: Test C preemergence; format: in vivo, Triticum aestivum
Outline: as §1

barnyardgrass [12] = assay: Test C postemergence; format: in vivo, Echinochloa crusgalli; details: 10 days, 0 to 100 scale (0 no effect, 100 complete control)
Outline: as §1

blackgrass [13] = assay: Test C postemergence; format: in vivo, Alopecurus myosuroides; details: 10 days, 0 to 100 scale (0 no effect, 100 complete control)
Outline: as §1

corn [14] = assay: Test C postemergence; format: in vivo, Zea mays; details: 10 days, 0 to 100 scale (0 no effect, 100 complete control)
Outline: as §1

green foxtail [15] = assay: Test C postemergence; format: in vivo, Setaria viridis; details: 10 days, 0 to 100 scale (0 no effect, 100 complete control)
Outline: as §1

kochia [16] = assay: Test C postemergence; format: in vivo, Bassia scoparia; details: 10 days, 0 to 100 scale (0 no effect, 100 complete control)
Outline: as §1

oat, wild [17] = assay: Test C postemergence; format: in vivo, Avena fatua; details: 10 days, 0 to 100 scale (0 no effect, 100 complete control)
Outline: as §1

pigweed, palmer [18] = assay: Test C postemergence; format: in vivo, Amaranthus palmeri; details: 10 days, 0 to 100 scale (0 no effect, 100 complete control)
Outline: as §1

ragweed [19] = assay: Test C postemergence; format: in vivo, Ambrosia artemisiifolia; details: 10 days, 0 to 100 scale (0 no effect, 100 complete control)
Outline: as §1

ryegrass, Italian [20] = assay: Test C postemergence; format: in vivo, Lolium multiflorum; details: 10 days, 0 to 100 scale (0 no effect, 100 complete control)
Outline: as §1

soybean [21] = assay: Test C postemergence; format: in vivo, Glycine max; details: 10 days, 0 to 100 scale (0 no effect, 100 complete control)
Outline: as §1

wheat [22] = assay: Test C postemergence; format: in vivo, Triticum aestivum; details: 10 days, 0 to 100 scale (0 no effect, 100 complete control)
Outline: as §1

galium = assay: Test C postemergence; format: in vivo, Galium aparine; details: 10 days, 0 to 100 scale (0 no effect, 100 complete control)
Outline: as §1

horseweed = assay: Test C postemergence; format: in vivo, Erigeron canadensis; details: 10 days, 0 to 100 scale (0 no effect, 100 complete control)
Outline: as §1

barnyardgrass [23] = assay: Test D flooded paddy test; format: in vivo, Echinochloa crus-galli; details: 250 g ai/ha, applied to paddy water, visual rating after 13 to 14 days, scale 0 to 100 (0 no effect, 100 complete control)
Outline: (§2)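 Rating scale 0–100 (0 no effect, 100 complete control), visual, versus controls. Readout at 13–14 days after in-water application to 2-leaf plants in pots flooded 3 cm deep.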

ducksalad = assay: Test D flooded paddy test; format: in vivo, Heteranthera limosa; details: 250 g ai/ha, applied to paddy water, visual rating after 13 to 14 days, scale 0 to 100 (0 no effect, 100 complete control)
Outline: as §2

rice = assay: Test D flooded paddy test; format: in vivo, Oryza sativa; details: 250 g ai/ha, applied to paddy water, visual rating after 13 to 14 days, scale 0 to 100 (0 no effect, 100 complete control)
Outline: as §2

sedge, umbrella = assay: Test D flooded paddy test; format: in vivo, Cyperus difformis; details: 250 g ai/ha, applied to paddy water, visual rating after 13 to 14 days, scale 0 to 100 (0 no effect, 100 complete control)
Outline: as §2

[24] = 500 g ai/ha, preemergence, 0 to 100 scale (0 no effect, 100 complete control)
[25] = Preemergence, 125 g ai/ha, 0 to 100 scale, 0 no effect, 100 complete control

CCOC[C@H]1CN(C(=O)c2cc(-n3cnc(CC)n3)cc3c2OCCO3)c2cccc(Cl)c2O1 [Compound 387]
Barnyardgrass plant response rating (barnyardgrass [1]; [24]): 100
Plant response rating, Barnyardgrass (barnyardgrass [1]; [25]): 50
Blackgrass plant response rating (blackgrass [2]; [24]): 20
Plant response rating, Blackgrass (blackgrass [2]; [25]): 0
Corn plant response rating (corn [3]; [24]): 30
Plant response rating, Corn (corn [3]; [25]): 0
Foxtail, Green plant response rating (green foxtail [4]; [24]): 100
Plant response rating, Foxtail, Green (green foxtail [4]; [25]): 50
Kochia plant response rating (kochia [5]; [24]): 100
Plant response rating, Kochia (kochia [5]; [25]): 20
Oat, Wild plant response rating (oat, wild [6]; [24]): 70
Plant response rating, Oat, Wild (oat, wild [6]; [25]): 40
Pigweed, Palmer plant response rating (pigweed, palmer [7]; [24]): 100
Plant response rating, Pigweed, Palmer (pigweed, palmer [7]; [25]): 100
Ragweed plant response rating (ragweed [8]; [24]): 100
Plant response rating, Ragweed (ragweed [8]; [25]): 80
Ryegrass, Italian plant response rating (ryegrass, Italian [9]; [24]): 80
Plant response rating, Ryegrass, Italian (ryegrass, Italian [9]; [25]): 60
Soybean plant response rating (soybean [10]; [24]): 100
Plant response rating, Soybean (soybean [10]; [25]): 90
Wheat plant response rating (wheat [11]; [24]): 30
Plant response rating, Wheat (wheat [11]; [25]): 10
Plant response rating, Barnyardgrass (barnyardgrass [12]; 500 g ai/ha, postemergence): 60
Plant response rating, Barnyardgrass (barnyardgrass [12]; Postemergence, 125 g ai/ha): 20
Plant response rating, Blackgrass (blackgrass [13]; 500 g ai/ha, postemergence): 90
Plant response rating, Blackgrass (blackgrass [13]; Postemergence, 125 g ai/ha): 60
Plant response rating, Corn (corn [14]; 500 g ai/ha, postemergence): 70
Plant response rating, Corn (corn [14]; Postemergence, 125 g ai/ha): 10
Plant response rating, Foxtail, Green (green foxtail [15]; 500 g ai/ha, postemergence): 80
Plant response rating, Foxtail, Green (green foxtail [15]; Postemergence, 125 g ai/ha): 40
Plant response rating, Kochia (kochia [16]; 500 g ai/ha, postemergence): 100
Plant response rating, Kochia (kochia [16]; Postemergence, 125 g ai/ha): 80
Plant response rating, Oat, Wild (oat, wild [17]; 500 g ai/ha, postemergence): 20
Plant response rating, Oat, Wild (oat, wild [17]; Postemergence, 125 g ai/ha): 0
Plant response rating, Pigweed, Palmer (pigweed, palmer [18]; 500 g ai/ha, postemergence): 100
Plant response rating, Pigweed, Palmer (pigweed, palmer [18]; Postemergence, 125 g ai/ha): 90
Plant response rating, Ragweed (ragweed [19]; 500 g ai/ha, postemergence): 80
Plant response rating, Ragweed (ragweed [19]; Postemergence, 125 g ai/ha): 70
Plant response rating, Ryegrass, Italian (ryegrass, Italian [20]; 500 g ai/ha, postemergence): 80
Plant response rating, Ryegrass, Italian (ryegrass, Italian [20]; Postemergence, 125 g ai/ha): 40
Plant response rating, Soybean (soybean [21]; 500 g ai/ha, postemergence): 100
Plant response rating, Soybean (soybean [21]; Postemergence, 125 g ai/ha): 100
Plant response rating, Wheat (wheat [22]; 500 g ai/ha, postemergence): 30
Plant response rating, Wheat (wheat [22]; Postemergence, 125 g ai/ha): 10
Plant response rating, Galium (galium; 500 g ai/ha, postemergence): 100
Plant response rating, Galium (galium; Postemergence, 125 g ai/ha): 100
Plant response rating, Horseweed (horseweed; 500 g ai/ha, postemergence): 60
Plant response rating, Horseweed (horseweed; Postemergence, 125 g ai/ha): 50
Plant response rating, Barnyardgrass (Flood) (barnyardgrass [23]): 25
Plant response rating, Ducksalad (Flood) (ducksalad): 20
Plant response rating, Rice (Flood) (rice): 10
Plant response rating, Sedge, Umbrella (Flood) (sedge, umbrella): 70
